pIC50: −log10 of the molar value. Like-named read-outs stand apart in the source and are kept apart here.
Experiments:
human V1a receptor = biological target: T1, human V1a receptor (Homo sapiens, UniProt P37288); test: Cellular in vitro assay for determining vasopressin receptor activity, V1a receptor cell line (CHO, aequorin luminescence); assay type: cell-based; conditions: for pIC50: CHO cell line transfected with human V1a receptor, [Arg]-vasopressin at EC50 concentration, read-out: IC50 hV1a; for ratio IC50 hV2/hV1a: selectivity ratio IC50 hV2 / IC50 hV1a
T1 construct: expressed in transfected cells; host or cells: CHO K1 (ATCC), also stably transfected with a modified aequorin
T1 sequence (P37288 whole entry): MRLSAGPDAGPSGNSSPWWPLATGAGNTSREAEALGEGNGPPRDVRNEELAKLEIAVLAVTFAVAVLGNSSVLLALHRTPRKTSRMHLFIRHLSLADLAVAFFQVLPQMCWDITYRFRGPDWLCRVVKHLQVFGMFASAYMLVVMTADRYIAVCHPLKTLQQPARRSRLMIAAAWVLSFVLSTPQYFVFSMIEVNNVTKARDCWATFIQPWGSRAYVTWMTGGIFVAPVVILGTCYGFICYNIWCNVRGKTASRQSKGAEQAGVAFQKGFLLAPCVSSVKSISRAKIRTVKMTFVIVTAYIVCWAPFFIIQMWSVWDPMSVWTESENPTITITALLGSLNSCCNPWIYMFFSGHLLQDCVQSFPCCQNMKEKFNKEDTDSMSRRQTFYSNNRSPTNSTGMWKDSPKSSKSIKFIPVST
How it was run: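 Cells were plated the day before in medium containing 5 μg/ml coelenterazine and kept at 37° C. Compounds at various concentrations were then added for 10 minutes. Next, [Arg]-vasopressin at EC50 was applied and light output recorded at once, yielding IC50.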

human V2 receptor = biological target: T2, human V2 receptor (Homo sapiens, UniProt P30518); test: Cellular in vitro assay for determining vasopressin receptor activity, V2 receptor cell line (CHO, CRE-luciferase); assay type: cell-based; conditions: CHO cell line transfected with human V2 receptor, [Arg8]-vasopressin at EC50 concentration, read-out: IC50 hV2
T2 construct: expressed in transfected cells; host or cells: CHO K1 (ATCC) expressing firefly luciferase under a CRE-responsive promoter
T2 sequence (P30518 whole entry): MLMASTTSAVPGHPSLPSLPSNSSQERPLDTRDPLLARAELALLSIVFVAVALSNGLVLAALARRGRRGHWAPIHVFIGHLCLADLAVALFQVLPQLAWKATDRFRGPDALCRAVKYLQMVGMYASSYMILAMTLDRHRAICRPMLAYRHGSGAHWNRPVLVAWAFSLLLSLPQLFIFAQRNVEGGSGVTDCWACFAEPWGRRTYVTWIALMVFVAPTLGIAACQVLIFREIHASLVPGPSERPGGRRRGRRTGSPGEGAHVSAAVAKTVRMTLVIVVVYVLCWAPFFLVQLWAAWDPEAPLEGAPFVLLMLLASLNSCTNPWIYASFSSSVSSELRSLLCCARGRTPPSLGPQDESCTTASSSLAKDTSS

O=C(c1cccc(Cl)c1-n1cnc(Cn2nc(-c3ccc(Cl)cc3)n(C[C@H](O)C(F)(F)F)c2=O)n1)N1CCC(C(F)(F)F)C1 (mixture of isomers) [Example 386, 5-(4-Chlorophenyl)-2-{[1-(2-chloro-6-{[3-(trifluoromethyl)pyrrolidin-1-yl]carbonyl}phenyl)-1H-1,2,4-triazol-3-yl]methyl}-4-[(2S)-3,3,3-trifluoro-2-hydroxypropyl]-2,4-dihydro-3H-1,2,4-triazol-3-one]
pIC50 (human V1a receptor): 6.77
ratio IC50 hV2/hV1a (human V1a receptor): 24.4
pIC50 (human V2 receptor; 3 hours): 5.38

NC(CNC(=O)c1cccc(Cl)c1-n1cnc(Cn2nc(-c3ccc(Cl)cc3)n(C[C@H](O)C(F)(F)F)c2=O)n1)C(F)(F)F (mixture of isomers) [Example 390, N-[2-Amino-3,3,3-trifluoropropyl]-3-chloro-2-[3-({3-(4-chlorophenyl)-5-oxo-4-[(2S)-3,3,3-trifluoro-2-hydroxypropyl]-4,5-dihydro-1H-1,2,4-triazol-1-yl}methyl)-1H-1,2,4-triazol-1-yl]benzamide]
pIC50 (human V1a receptor): 7.16
ratio IC50 hV2/hV1a (human V1a receptor): 7.7
pIC50 (human V2 receptor; 3 hours): 6.28

O=C(NC1CC1(F)F)c1cccc(Cl)c1-n1cnc(Cn2nc(-c3ccc(Cl)cc3)n(C[C@@H](O)C(F)(F)F)c2=O)n1 (mixture of isomers) [Example 395, 3-Chloro-2-[3-({3-(4-chlorophenyl)-5-oxo-4-[(2R)-3,3,3-trifluoro-2-hydroxypropyl]-4,5-dihydro-1H-1,2,4-triazol-1-yl}methyl)-1H-1,2,4-triazol-1-yl]-N-[2,2-difluorocyclopropyl]benzamide]
pIC50 (human V1a receptor): 7.09
ratio IC50 hV2/hV1a (human V1a receptor): 62.8
pIC50 (human V2 receptor; 3 hours): 5.29

NC(=O)C1CCCN1C(=O)c1cccc(Cl)c1-n1cnc(Cn2nc(-c3ccc(Cl)cc3)n(C[C@@H](O)C(F)(F)F)c2=O)n1 (mixture of isomers) [Example 400, 1-{3-Chloro-2-[3-({3-(4-chlorophenyl)-5-oxo-4-[(2R)-3,3,3-trifluoro-2-hydroxypropyl]-4,5-dihydro-1H-1,2,4-triazol-1-yl}methyl)-1H-1,2,4-triazol-1-yl]benzoyl}-prolinamide]
pIC50 (human V1a receptor): 6.24
ratio IC50 hV2/hV1a (human V1a receptor): 56.1
pIC50 (human V2 receptor): 4.49

O=C(NC1CC1F)c1cccc(Cl)c1-n1cnc(Cn2nc(-c3ccc(Cl)cc3)n(C[C@@H](O)C(F)(F)F)c2=O)n1 (mixture of isomers) [Example 406, 3-Chloro-2-[3-({3-(4-chlorophenyl)-5-oxo-4-[(2R)-3,3,3-trifluoro-2-hydroxypropyl]-4,5-dihydro-1H-1,2,4-triazol-1-yl}methyl)-1H-1,2,4-triazol-1-yl]-N-[2-fluorocyclopropyl]benzamide]
pIC50 (human V1a receptor): 7.59
ratio IC50 hV2/hV1a (human V1a receptor): 390.4
pIC50 (human V2 receptor): 4.99

NC(CNC(=O)c1cccc(Cl)c1-n1cnc(Cn2nc(-c3ccc(Cl)cc3)n(C[C@@H](O)C(F)(F)F)c2=O)n1)C(F)(F)F (mixture of isomers) [Example 408, N-[2-Amino-3,3,3-trifluoropropyl]-3-chloro-2-[3-({3-(4-chlorophenyl)-5-oxo-4-[(2R)-3,3,3-trifluoro-2-hydroxypropyl]-4,5-dihydro-1H-1,2,4-triazol-1-yl}methyl)-1H-1,2,4-triazol-1-yl]benzamide]
pIC50 (human V1a receptor): 6.40
ratio IC50 hV2/hV1a (human V1a receptor): 21.3
pIC50 (human V2 receptor): 5.07

O=C(NC1CC1(F)F)c1cccc(C(F)(F)F)c1-n1cnc(Cn2nc(-c3ccc(Cl)cc3)n(C[C@H](O)C(F)(F)F)c2=O)n1 (mixture of isomers) [Example 420, 2-[3-({3-(4-Chlorophenyl)-5-oxo-4-[(2S)-3,3,3-trifluoro-2-hydroxypropyl]-4,5-dihydro-1H-1,2,4-triazol-1-yl}methyl)-1H-1,2,4-triazol-1-yl]-N-[2,2-difluorocyclopropyl]-3-(trifluoromethyl)benzamide]
pIC50 (human V1a receptor): 7.23
ratio IC50 hV2/hV1a (human V1a receptor): 19.7
pIC50 (human V2 receptor): 5.94

NC(CNC(=O)c1ncccc1-n1cnc(Cn2nc(-c3ccc(Cl)cc3)n(C[C@H](O)C(F)(F)F)c2=O)n1)C(F)(F)F (mixture of isomers) [Example 429, N-[(2R)-2-Amino-3,3,3-trifluoropropyl]-3-[3-({3-(4-chlorophenyl)-5-oxo-4-[(2S)-3,3,3-trifluoro-2-hydroxypropyl]-4,5-dihydro-1H-1,2,4-triazol-1-yl}methyl)-1H-1,2,4-triazol-1-yl]pyridine-2-carboxamide]
pIC50 (human V1a receptor): 7.29
ratio IC50 hV2/hV1a (human V1a receptor): 27.5
pIC50 (human V2 receptor): 5.85

O=C(NCC(O)C(F)(F)F)c1ncccc1-n1cnc(Cn2nc(-c3ccc(Cl)cc3)n(C[C@H](O)C(F)(F)F)c2=O)n1 (mixture of isomers) [Example 430, 3-[3-({3-(4-Chlorophenyl)-5-oxo-4-[(2S)-3,3,3-trifluoro-2-hydroxypropyl]-4,5-dihydro-1H-1,2,4-triazol-1-yl}methyl)-1H-1,2,4-triazol-1-yl]-N-[3,3,3-trifluoro-2-hydroxypropyl]pyridine-2-carboxamide]
pIC50 (human V1a receptor): 7.35
ratio IC50 hV2/hV1a (human V1a receptor): 16.0
pIC50 (human V2 receptor): 6.15

O=C(NC1CC1(F)F)c1ncccc1-n1cnc(Cn2nc(-c3ccc(Cl)cc3)n(C[C@H](O)C(F)(F)F)c2=O)n1 (mixture of isomers) [Example 436, 3-[3-({3-(4-Chlorophenyl)-5-oxo-4-[(2S)-3,3,3-trifluoro-2-hydroxypropyl]-4,5-dihydro-1H-1,2,4-triazol-1-yl}methyl)-1H-1,2,4-triazol-1-yl]-N-[2,2-difluorocyclopropyl]pyridine-2-carboxamide]
pIC50 (human V1a receptor): 7.60
ratio IC50 hV2/hV1a (human V1a receptor): 33.0
pIC50 (human V2 receptor): 6.08

CC1CN(C(=O)c2ncccc2-n2cnc(Cn3nc(-c4ccc(Cl)cc4)n(C[C@H](O)C(F)(F)F)c3=O)n2)CCO1 (mixture of isomers) [Example 440, 5-(4-Chlorophenyl)-2-{[1-(2-{[2-methylmorpholin-4-yl]carbonyl}pyridin-3-yl)-1H-1,2,4-triazol-3-yl]methyl}-4-[(2S)-3,3,3-trifluoro-2-hydroxypropyl]-2,4-dihydro-3H-1,2,4-triazol-3-one]
pIC50 (human V1a receptor): 7.00
ratio IC50 hV2/hV1a (human V1a receptor): 45.5
pIC50 (human V2 receptor): 5.34

NC(=O)C1CCCN1C(=O)c1ncccc1-n1cnc(Cn2nc(-c3ccc(Cl)cc3)n(C[C@H](O)C(F)(F)F)c2=O)n1 (mixture of isomers) [Example 441, 1-({3-[3-({3-(4-Chlorophenyl)-5-oxo-4-[(2S)-3,3,3-trifluoro-2-hydroxypropyl]-4,5-dihydro-1H-1,2,4-triazol-1-yl}methyl)-1H-1,2,4-triazol-1-yl]pyridin-2-yl}carbonyl)-prolinamide]
pIC50 (human V1a receptor): 6.76
ratio IC50 hV2/hV1a (human V1a receptor): 34.6
pIC50 (human V2 receptor): 5.22

O=C(c1ncccc1-n1cnc(Cn2nc(-c3ccc(Cl)cc3)n(C[C@H](O)C(F)(F)F)c2=O)n1)N1CCC(O)(C(F)(F)F)C1 (mixture of isomers) [Example 442, 5-(4-Chlorophenyl)-2-{[1-(2-{[3-hydroxy-3-(trifluoromethyl)pyrrolidin-1-yl]carbonyl}pyridin-3-yl)-1H-1,2,4-triazol-3-yl]methyl}-4-[(2S)-3,3,3-trifluoro-2-hydroxypropyl]-2,4-dihydro-3H-1,2,4-triazol-3-one]
pIC50 (human V1a receptor): 6.72
ratio IC50 hV2/hV1a (human V1a receptor): 24.5
pIC50 (human V2 receptor): 5.33

O=C(c1ncccc1-n1cnc(Cn2nc(-c3ccc(Cl)cc3)n(C[C@H](O)C(F)(F)F)c2=O)n1)N1CCOC(C(F)(F)F)C1 (mixture of isomers) [Example 444, 5-(4-Chlorophenyl)-4-[(2S)-3,3,3-trifluoro-2-hydroxypropyl]-2-{[1-(2-{[2-(trifluoromethyl)morpholin-4-yl]carbonyl}pyridin-3-yl)-1H-1,2,4-triazol-3-yl]methyl}-2,4-dihydro-3H-1,2,4-triazol-3-one]
pIC50 (human V1a receptor): 6.92
ratio IC50 hV2/hV1a (human V1a receptor): 65.4
pIC50 (human V2 receptor): 5.11

O=C(c1ncccc1-n1cnc(Cn2nc(-c3ccc(Cl)cc3)n(C[C@H](O)C(F)(F)F)c2=O)n1)N1CCNC(C(F)(F)F)C1 (mixture of isomers) [Example 448, 5-(4-Chlorophenyl)-4-[(2S)-3,3,3-trifluoro-2-hydroxypropyl]-2-{[1-(2-{[3-(trifluoromethyl)piperazin-1-yl]carbonyl}pyridin-3-yl)-1H-1,2,4-triazol-3-yl]methyl}-2,4-dihydro-3H-1,2,4-triazol-3-one]
pIC50 (human V1a receptor): 6.78
ratio IC50 hV2/hV1a (human V1a receptor): 16.4
pIC50 (human V2 receptor): 5.57

O=C(c1ncccc1-n1cnc(Cn2nc(-c3ccc(Cl)cc3)n(C[C@H](O)C(F)(F)F)c2=O)n1)N1CCC(C(F)(F)F)C1 (mixture of isomers) [Example 449, 5-(4-Chlorophenyl)-4-[(2S)-3,3,3-trifluoro-2-hydroxypropyl]-2-{[1-(2-{[3-(trifluoromethyl)pyrrolidin-1-yl]carbonyl}pyridin-3-yl)-1H-1,2,4-triazol-3-yl]methyl}-2,4-dihydro-3H-1,2,4-triazol-3-one]
pIC50 (human V1a receptor): 6.70
ratio IC50 hV2/hV1a (human V1a receptor): 16.8
pIC50 (human V2 receptor): 5.47

NC(=O)C1CCCN1C(=O)c1ncccc1-n1cnc(Cn2nc(-c3ccc(Cl)cc3)n(C[C@@H](O)C(F)(F)F)c2=O)n1 (mixture of isomers) [Example 467, 1-({3-[3-({3-(4-chlorophenyl)-5-oxo-4-[(2R)-3,3,3-trifluoro-2-hydroxypropyl]-4,5-dihydro-1H-1,2,4-triazol-1-yl}methyl)-1H-1,2,4-triazol-1-yl]pyridin-2-yl}carbonyl)-prolinamide]
pIC50 (human V1a receptor): 6.21
ratio IC50 hV2/hV1a (human V1a receptor): 51.6
pIC50 (human V2 receptor): 4.49

Source: patent US11173151B2, “Substituted triazole derivatives and uses thereof” (BAYER AKTIENGESELLSCHAFT, priority 2017, dated 2021)
